Data as given in ChEMBL document CHEMBL4422644, “Synthesis and evaluation of α-aminoacyl amides as antitubercular agents effective on drug resistant tuberculosis” (Eur J Med Chem, 2019).
Converted amounts (≈) assume the structure as drawn.

Legend:
[1] = tested on: Mycobacterium tuberculosis; assay: Antitubercular activity against Mycobacterium tuberculosis H37Rv after 7 days by alamar blue assay; type: functional; settings: 168 h
CHO-K1 = assay: Cytotoxicity against CHOK1 cells after 24 hrs by MTT assay; type: cell-based; settings: Cricetulus griseus, CHO-K1, 24 h
[2] = Selectivity index, ratio of IC50 for CHOK1 cells to MIC for Mycobacterium tuberculosis H37Rv; type: toxicity; settings: hamster, read-out: Selectivity Index
A549 = assay: Cytotoxicity against human A549 cells after 24 hrs by MTT assay; type: functional, cell-based; settings: A549, 24 h
DU-145 = assay: Cytotoxicity against human DU145 cells after 24 hrs by MTT assay; type: functional, cell-based; settings: DU-145, 24 h
HeLa = assay: Cytotoxicity against human HeLa cells after 24 hrs by MTT assay; type: functional, cell-based
HepG2 = assay: Cytotoxicity against human HepG2 cells after 24 hrs by MTT assay; type: functional, cell-based; settings: HepG2, 24 h
MCF7 = assay: Cytotoxicity against human MCF7 cells after 24 hrs by MTT assay; type: functional, cell-based; settings: MCF7, 24 h
[3] = Cytotoxicity against […] B16 cells after 24 hrs by MTT assay; type: functional, cell-based; settings: B16, 24 h
[4] = Cytotoxicity against HEK cells after 24 hrs by MTT assay; type: cell-based; settings: Homo sapiens, HEK293, 24 h
[5] = Selectivity index, ratio of IC50 for HEK cells to MIC for Mycobacterium tuberculosis H37Rv; type: toxicity; settings: human, read-out: Selectivity Index
Escherichia coli = assay: Antibacterial activity against Escherichia coli ATCC 25922 after 24 hrs; type: functional; settings: ATCC 25922, 24 h
Staphylococcus aureus = assay: Antibacterial activity against Staphylococcus aureus ATCC 29213 after 24 hrs; type: functional; settings: ATCC 29213, 24 h
Pseudomonas aeruginosa = assay: Antibacterial activity against Pseudomonas aeruginosa ATCC 27853 after 24 hrs; type: functional; settings: ATCC 27853, 24 h
Klebsiella pneumoniae = assay: Antibacterial activity against Klebsiella pneumoniae ATCC BAA-1705 after 24 hrs; type: functional; settings: ATCC BAA-1705, 24 h
Acinetobacter baumannii = assay: Antibacterial activity against Acinetobacter baumannii ATCC BAA-1605 after 24 hrs; type: functional; settings: ATCC BAA-1605, 24 h
[6] = tested on: Mycolicibacterium fortuitum; assay: Antibacterial activity against Mycobacterium fortuitum after 7 days by alamar blue assay; type: functional; settings: 168 h
Mycobacteroides chelonae = assay: Antibacterial activity against Mycobacterium chelonae after 7 days by alamar blue assay; type: functional; settings: 168 h
[7] = tested on: Mycobacteroides abscessus; assay: Antibacterial activity against Mycobacterium abscessus after 7 days by alamar blue assay; type: functional; settings: 168 h

SMILES | MIC [1] | IC50 (CHO-K1) | selectivity ratio [2] | IC50 (A549) | IC50 (DU-145) | IC50 (HeLa) | IC50 (HepG2) | IC50 (MCF7) | IC50 [3] | IC50 [4] | selectivity ratio [5] | MIC (Escherichia coli) | MIC (Staphylococcus aureus) | MIC (Pseudomonas aeruginosa) | MIC (Klebsiella pneumoniae) | MIC (Acinetobacter baumannii) | MIC [6] | MIC (Mycobacteroides chelonae) | MIC [7]
Cc1ccc(N(C(=O)c2sc(C)nc2C)C(C(=O)NC2CCCCC2)c2cccnc2)cc1 (stereo not given) | 3.12 µM (≈ 1.44 µg/mL) | 161 µM | 51.6 | 11.7 µM | 16.6 µM | 9.11 µM | 6.75 µM | 5.99 µM | 17.7 µM | 59.1 µM | 18.9 | > 50 µM | > 50 µM | > 50 µM | > 50 µM | > 50 µM | > 50 µM | > 50 µM | > 50 µM
Cc1cccc(N(C(=O)c2c(C)noc2C)C(C(=O)NC2CCCCC2)c2ccccc2)c1C (stereo not given) | 3.12 µM (≈ 1.43 µg/mL) | 47.5 µM | 15.1 | 8.49 µM | 9.95 µM | 8.67 µM | 10.4 µM | 3.05 µM | 27.7 µM | 97.6 µM | 31.3 | > 50 µM | > 50 µM | > 50 µM | > 50 µM | > 50 µM | > 50 µM | > 50 µM | > 50 µM
Cc1ccc(N(C(=O)c2sc(C)nc2C)C(C(=O)NC2CCCCC2)c2c(F)cc(Br)cc2F)cc1 (stereo not given) | 6.25 µM (≈ 3.6 µg/mL) | 53.3 µM | 8.5 | 11.7 µM | 12.6 µM | 22.2 µM | 4.79 µM | 4.08 µM | 10.8 µM | 58.3 µM |  | > 50 µM | > 50 µM | > 50 µM | > 50 µM | > 50 µM | > 50 µM | > 50 µM | > 50 µM
Cc1nc(C)c(C(=O)N(c2cccc(C)c2C)C(C(=O)NCc2ccccc2)c2ccccc2)s1 (stereo not given) | 6.12 µM (≈ 2.96 µg/mL) | 30.2 µM | 4.9 | 12.7 µM | 12.6 µM | 11.7 µM | 8.13 µM | 5.62 µM | 12.4 µM | 31.2 µM |  | > 50 µM | > 50 µM | > 50 µM | > 50 µM | > 50 µM | > 50 µM | > 50 µM | > 50 µM
Cc1cccc(N(C(=O)c2ccc[nH]2)C(C(=O)NC2CCCCC2)c2ccncc2)c1C (stereo not given) | 6.25 µM (≈ 2.69 µg/mL) | 142 µM | 22.6 | 15.8 µM | 10.8 µM | 13.1 µM | 8.95 µM | 5.85 µM | 16.6 µM | 108 µM |  | > 50 µM | > 50 µM | > 50 µM | > 50 µM | > 50 µM | > 50 µM | > 50 µM | > 50 µM
Cc1ccc(N(C(=O)c2sc(C)nc2C)C(C(=O)NC2CCCCC2)c2ccc[nH]2)cc1 (stereo not given) | 6.25 µM (≈ 2.82 µg/mL) | 33.4 µM | 5.3 | 11.7 µM | 12.7 µM | 11.6 µM | 6.13 µM | 4.25 µM | 14.5 µM | 15.4 µM |  | > 50 µM | > 50 µM | > 50 µM | > 50 µM | > 50 µM | > 50 µM | > 50 µM | > 50 µM
Cc1ccc(N(C(=O)c2sc(C)nc2C)C(C(=O)NC2CCCCC2)c2ccncc2)cc1 (stereo not given) | 12.5 µM (≈ 5.78 µg/mL) | 141 µM | 11.3 | 11.6 µM | 14.5 µM | 11 µM | 12 µM | 10.3 µM | 23.9 µM | 81.1 µM |  | > 50 µM | > 50 µM | > 50 µM | > 50 µM | > 50 µM | > 50 µM | > 50 µM | > 50 µM
Cc1cccc(N(C(=O)c2ccc[nH]2)C(C(=O)NC2CCCCC2)c2ccccc2)c1C (stereo not given) | 12.5 µM (≈ 5.37 µg/mL) | 134 µM | 10.7 | 6.83 µM | 11.2 µM | 14.2 µM | 11 µM | 3.58 µM | 12.3 µM | 116 µM |  | > 50 µM | > 50 µM | > 50 µM | > 50 µM | > 50 µM | > 50 µM | > 50 µM | > 50 µM
Cc1ccc(N(C(=O)c2c(C)noc2C)C(C(=O)NC2CCCCC2)c2ccncc2)cc1 (stereo not given) | 6.12 µM (≈ 2.73 µg/mL) | 166 µM | 26.6 | 11 µM | 9.53 µM | 15.8 µM | 8.48 µM | 4.24 µM | 28.6 µM | 71.3 µM |  | > 50 µM | > 50 µM | > 50 µM | > 50 µM | > 50 µM | > 50 µM | > 50 µM | > 50 µM
Cc1ccc(N(C(=O)c2sc(C)nc2C)C(C(=O)NC2CCCCC2)c2ccc(Cl)cc2)cc1 (stereo not given) | 0.78 µM (≈ 0.387 µg/mL) | 7.37 µM | 8.9 | 10.3 µM | 9 µM | 11.9 µM | 5.33 µM | 3.19 µM | 23 µM | 11.8 µM |  | > 50 µM | > 50 µM | > 50 µM | > 50 µM | > 50 µM | > 50 µM | > 50 µM | > 50 µM
Cc1ccc(N(C(=O)c2ccc[nH]2)C(C(=O)NC2CCCCC2)c2cccnc2)cc1 (stereo not given) | 12.5 µM (≈ 5.21 µg/mL) | 135 µM | 10.7 | 15.2 µM | 15.5 µM | 12 µM | 11.5 µM | 5.61 µM | 18.4 µM | 120 µM |  | > 50 µM | > 50 µM | > 50 µM | > 50 µM | > 50 µM | > 50 µM | > 50 µM | > 50 µM
Cc1ccc(N(C(=O)c2sc(C)nc2C)C(C(=O)NC2CCCCC2)c2ccccc2)c(C)c1 (stereo not given) | 12.5 µM (≈ 5.95 µg/mL) | 43 µM | 3.4 | 8.63 µM | 11.4 µM | 9.43 µM | 12.6 µM | 11.7 µM | 29.8 µM | 47 µM |  | > 50 µM | > 50 µM | > 50 µM | > 50 µM | > 50 µM | > 50 µM | > 50 µM | > 50 µM
Cc1nc(C)c(C(=O)N(c2cccc(C)c2C)C(C(=O)NC2CCCCC2)c2ccc(Cl)cc2)s1 (stereo not given) | 3.12 µM (≈ 1.59 µg/mL) | 11.4 µM | 3.5 | 9.2 µM | 8.53 µM | 13.9 µM | 6.15 µM | 4.12 µM | 21 µM | 90.5 µM |  | > 50 µM | > 50 µM | > 50 µM | > 50 µM | > 50 µM | > 50 µM | > 50 µM | > 50 µM
Cc1ccc(N(C(=O)c2sc(C)nc2C)C(C(=O)NC2CCCCC2)c2ccccc2)cc1 (stereo not given) | 1.56 µM (≈ 0.72 µg/mL) | 17.9 µM | 10.9 | 1.48 µM | 14 µM | 10.7 µM | 11.8 µM | 3.69 µM | 13.9 µM | 37 µM |  | > 50 µM | > 50 µM | > 50 µM | > 50 µM | > 50 µM | > 50 µM | > 50 µM | > 50 µM
Cc1cccc(N(C(=O)c2c(C)noc2C)C(C(=O)NC2CCCCC2)c2cccnc2)c1C (stereo not given) | 6.25 µM (≈ 2.88 µg/mL) | 137 µM | 21.7 | 12.8 µM | 12 µM | 14.1 µM | 11.8 µM | 6.62 µM | 32.7 µM | 76.9 µM |  | > 50 µM | > 50 µM | > 50 µM | > 50 µM | > 50 µM | > 50 µM | > 50 µM | > 50 µM
Cc1cccc(N(C(=O)c2ccc[nH]2)C(C(=O)NC2CCCCC2)c2cccnc2)c1C (stereo not given) | 12.5 µM (≈ 5.38 µg/mL) | 267 µM | 21.4 | 17.5 µM | 12.6 µM | 10 µM | 9.58 µM | 5.51 µM | 13.7 µM | 54.3 µM |  | > 50 µM | > 50 µM | > 50 µM | > 50 µM | > 50 µM | > 50 µM | > 50 µM | > 50 µM
